Values joined by “and” are separate entries in the source; they are usually repeats but may differ in a detail not shown here. Identical values can stand only once.
Tests used:
HtaA^CR1 / HtaA^CR2 = assay: Native ESI-MS hemin partitioning HtaA^CR1 → HtaA^CR2; assay type: binding, Corynebacterium diphtheriae; details: transfer HtaA^CR1 → HtaA^CR2 (donor HtaA^CR2, acceptor HtaA^CR1)
Method: (§1) nESI-MS was used for ligand (heme)-competition experiments between CR domain pairs to determine their relative heme dissociation constant Krelative (Krel) ([37], [56]). In this approach, two different CR domains (e.g. a >90% heme-loaded “heme donor” and a <10% heme-loaded “heme acceptor” CR domain) are mixed and allowed to come to equilibrium (>6 h, 24 °C). The resulting mixture is then analyzed by nESI-MS, where the apo- and holo-abundance of each CR domain is determined from the sum peak intensity from each of their charge states as described previously ([37]). The relative affinity between the CR pair tested can be determined by their nESI-MS abundances according to Equation 1, which is derived from the ratio of each CR’s KD for heme. Importantly, this analysis is independent of [heme] and Krel should be consistent across different concentrations of [heme donor] and [heme acceptor]; thus, we used at least three different holo-donor and apo-acceptor stoichiometry ratios to determine each Krel reported in Table S4.(eq. 1) KRelative=[CR^hemeacceptor][CR^hemedonor·heme]/[CR^hemedonor][CR^hemeacceptor·heme]=Ab(CR^hemeacceptor)Ab(CR^hemedonor·heme)/Ab(CR^hemedonor)Ab(CR^hemeacceptor·heme)
(§2) For nESI-MS heme-competition experiments, CR domains were first buffer-exchanged into 50 mM ammonium acetate (pH 6.9) using dialysis or gel filtration and protein concentration was determined by bicinchoninic acid assay or UV-visible absorbance at 280 nm. Proteins were then mixed at donor:acceptor ratios ranging from 1:9 to 9:1 (but most often 1:3, 1:1, and 3:1), and incubated for at least 6 h at 24 °C. Equilibrated mixtures were then loaded into platinum-coated borosilicate emitter tips with an inner diameter of 200 to 500 nm pulled on a Sutter P-1000 Micropipette Puller and sprayed on a Q-Exactive UHMR Hybrid Quadrupole-Orbitrap Mass Spectrometer (Thermo Fisher Scientific).
(§3) Table of all CR pairs and stoichiometric ratios tested during the native ESI-MS heme equilibrium partitioning experiments. Apo or holo CR domains were mixed at various ratios (most commonly 1:3, 1:1, and 3:1, corresponding to 5:15 µM, 10:10 µM, or 15:5 µM, respectively).

ChtA^CR Y129A = assay: ITC of hemin binding to ChtA^CR Y129A; parameters: species or system Corynebacterium diphtheriae
From the text: (§4) Protein samples were equilibrated in titration buffer supplemented with 5% (v/v) DMSO. […] Binding isotherms were fit to a one-site binding model using the program ORIGIN ([91]).

[1] = system: HtaA^CR2 (donor) / HtaB^CR (acceptor); assay: Native ESI-MS hemin partitioning HtaA^CR2 → HtaB^CR; assay type: binding, Corynebacterium diphtheriae
Method: as §1, §2, §3

ChtA^CR Y178H = assay: ITC of hemin binding to ChtA^CR Y178H; parameters: species or system Corynebacterium diphtheriae; details: 25 °C, average of three replicates
From the text: as §4

[2] = system: HtaA^CR1 (donor) / HtaB^CR (acceptor); assay: Native ESI-MS hemin partitioning HtaA^CR1 → HtaB^CR; assay type: binding, Corynebacterium diphtheriae
Method: as §1, §2, §3

ChtA^CR Y178A = assay: ITC of hemin binding to ChtA^CR Y178A; parameters: species or system Corynebacterium diphtheriae
From the text: as §4

[3] = system: HtaB^CR (donor) / HtaA^CR2 (acceptor); assay: Native ESI-MS hemin partitioning HtaB^CR → HtaA^CR2; assay type: binding, Corynebacterium diphtheriae
Method: as §1, §2, §3

[4] = system: HtaA^CR2 (donor) / ChtA^CR (acceptor); assay: Native ESI-MS hemin partitioning HtaA^CR2 → ChtA^CR; assay type: binding, Corynebacterium diphtheriae
Method: as §1, §2, §3

[5] = system: CR domains within C. diphtheriae’s hemin-uptake system; assay: Hemin affinity across the cohort of CR domains (ITC and native MS partitioning); assay type: binding, Corynebacterium diphtheriae; details: across ChtA^CR, HtaB^CR, HtaA^CR1, HtaA^CR2
From the text: The C. diphtheriae hemin-uptake system contains six CR domains that are located at distinct sites outside the cell (Fig. 1). […] Together, they represent nearly the full complement of C. diphtheriae’s CR domains (only the domains from ChtB and ChtC are missing, but they are expected to have similar binding properties as their paralogs, HtaB and ChtA, respectively). […] Similar measurements were made for the following protein pairs: HtaA^CR2/HtaB^CR, HtaA^CR1/HtaB^CR, HtaA^CR2/HtaA^CR1, ChtA^CR/HtaA^CR2, and ChtA^CR/HtaB^CR (Table S4).
nESI-MS was used for ligand (heme)-competition experiments between CR domain pairs to determine their relative heme dissociation constant Krelative (Krel) ([37], [56]). […] The resulting mixture is then analyzed by nESI-MS, where the apo- and holo-abundance of each CR domain is determined from the sum peak intensity from each of their charge states as described previously ([37]). The relative affinity between the CR pair tested can be determined by their nESI-MS abundances according to Equation 1, which is derived from the ratio of each CR’s KD for heme. […]
For nESI-MS heme-competition experiments, CR domains were first buffer-exchanged into 50 mM ammonium acetate (pH 6.9) using dialysis or gel filtration and protein concentration was determined by bicinchoninic acid assay or UV-visible absorbance at 280 nm. […]

ChtA^CR K177G = assay: ITC of hemin binding to ChtA^CR K177G; parameters: species or system Corynebacterium diphtheriae; details: 25 °C, average of three replicates
From the text: as §4

ChtA^CR K177G + Y178H = assay: ITC of hemin binding to ChtA^CR K177G + Y178H; parameters: species or system Corynebacterium diphtheriae; details: 25 °C, average of three replicates
From the text: as §4

IsdH NEAT domain = target: IsdH NEAT domain; parameters: method as in PMID 23649633, PMID 24245481; details: ITC, ref [57], [58]; cited from earlier work

In the case of hemin, the “Krel (donor/acceptor)” value (HtaA^CR1 / HtaA^CR2; AVERAGE) is reported as 0.84 ± 0.12, the Krel inverse (HtaA^CR1 / HtaA^CR2; AVERAGE) is reported as 1.2 ± 0.15 and the “Krel (donor/acceptor)” value (HtaA^CR1 / HtaA^CR2; ratio 1:1) is reported as 0.78. The Krel inverse (HtaA^CR1 / HtaA^CR2; ratio 1:1) was 1.28, the “Krel (donor/acceptor)” value (HtaA^CR1 / HtaA^CR2; ratio 1:3) was 0.98 and the Krel inverse (HtaA^CR1 / HtaA^CR2; ratio 1:3) was 1.02. For the same substance, the “Krel (donor/acceptor)” value (HtaA^CR1 / HtaA^CR2; ratio 3:1) was 0.77, the Krel inverse (HtaA^CR1 / HtaA^CR2; ratio 3:1) was 1.29 and the “decrease in binding affinity” value (ChtA^CR Y129A; ChtA^CR Y129A versus WT) was over 25 fold. For the same substance, the Kd (ChtA^CR Y129A; ChtA^CR Y129A, 25 °C, average of three replicates) was over 500 nM, the “Krel (donor/acceptor)” value ([1]; AVERAGE) was 4.93 ± 0.88 and the Krel inverse ([1]; AVERAGE) was 0.21 ± 0.04. For the same substance, the “Krel (donor/acceptor)” value ([1]; ratio 1:1) was 3.92, the Krel inverse ([1]; ratio 1:1) was 0.26 and the “Krel (donor/acceptor)” value ([1]; ratio 1:3) was 5.31. For the same substance, the Krel inverse ([1]; ratio 1:3) was 0.19, the “Krel (donor/acceptor)” value ([1]; ratio 3:1) was 5.56 and the Krel inverse ([1]; ratio 3:1) was 0.18. For the same substance, the Kd (ChtA^CR Y178H) was 54.8 ± 1.9 nM, the “Krel (donor/acceptor)” value ([2]; AVERAGE) was 5.75 ± 1.4 and the Krel inverse ([2]; AVERAGE) was 0.18 ± 0.05. The “Krel (donor/acceptor)” value ([2]; ratio 1:1) was 7.51 and 4.09 and 6.88, the Krel inverse ([2]; ratio 1:1) was 0.13 and 0.24 and 0.15 and the “Krel (donor/acceptor)” value ([2]; ratio 1:3) was 4.46 and 4.42. For the same substance, the Krel inverse ([2]; ratio 1:3) was 0.22 and 0.23, the “Krel (donor/acceptor)” value ([2]; ratio 3:1) was 6.16 and 6.76 and the Krel inverse ([2]; ratio 3:1) was 0.16 and 0.15. The reduction of affinity (ChtA^CR Y178A; ChtA^CR Y178A versus WT) was about 2 fold, the Kd (ChtA^CR Y178A; ChtA^CR Y178A, 25 °C, average of three replicates) was 46.6 ± 9.6 nM and the “Krel (donor/acceptor)” value ([3]; acceptor HtaA^CR2, AVERAGE) was 0.18 ± 0.01. The Krel inverse ([3]; acceptor HtaA^CR2, AVERAGE) was 5.66 ± 0.33, the “Krel (donor/acceptor)” value ([3]; acceptor HtaA^CR2, ratio 1:1) was 0.17 and the Krel inverse ([3]; acceptor HtaA^CR2, ratio 1:1) was 5.8. For the same substance, the “Krel (donor/acceptor)” value ([3]; acceptor HtaA^CR2, ratio 1:3) was 0.17, the Krel inverse ([3]; acceptor HtaA^CR2, ratio 1:3) was 5.9 and the “Krel (donor/acceptor)” value ([3]; acceptor HtaA^CR2, ratio 3:1) was 0.19. For the same substance, the Krel inverse ([3]; acceptor HtaA^CR2, ratio 3:1) was 5.28, the Krel inverse ([4]; AVERAGE) was 24.96 ± 8.87 and the “Krel (donor/acceptor)” value ([4]; ratio 1:1) was 0.05. The Krel inverse ([4]; ratio 1:1) was 18.29, the “Krel (donor/acceptor)” value ([4]; ratio 1:3) was 0.05 and the Krel inverse ([4]; ratio 1:3) was 19.27. For the same substance, the “Krel (donor/acceptor)” value ([4]; ratio 2:1) was 0.03 and 0.06, the Krel inverse ([4]; ratio 3:1) was 32.96 and the “Krel (donor/acceptor)” value ([4]; ratio (donor:acceptor) 3:1) was 0.03. For the same substance, the “variation in binding strength” value [5] was about 25 fold, the Kd (ChtA^CR K177G) was 23.6 ± 0.8 nM and the Kd (ChtA^CR K177G + Y178H) was 27.1 ± 9 nM. For the same substance, the Kd (IsdH NEAT domain) was 34 ± 8 nM.

From PMC12494546, “Structural basis of heme scavenging by the ChtA and HtaA hemophores in Corynebacterium diphtheriae” (The Journal of Biological Chemistry, 2025)
